This series deals with human lymphoblastoid cell lines 536. Briefly: Tritiated thymidine incorporation (DNA synthesis) bioassay in 536 cells. Type of series: cell-based. The following applies: for IC50: after 24 and 48 hours drug exposure, radiolabelled thymidine incorporation (FIG. 4), read-out: ID50% concentration-dependent inhibition of DNA synthesis. As to the method: Rapamycin induces a specific cell cycle arrest in G1 in the cell line 536, which is a human B lymphocytic line immortalised by Epstein Barr virus infection. The potency of each analogue was compared to that of rapamycin using the 536 cells as a bioassay. The 536 cells (obtained from the human genetic mutant cell repository, Camden, N.J., USA) were cultured in Iscoves medium supplemented with 10% fetal calf serum. For bioassay, 536 cells were seeded into 96 well microtitre plates at 10,000 per well in 100 μl of growth medium. Drug stocks of 1 mM in DMSO were prepared and further dilutions were made to give a constant final concentration of 0.1% DMSO in growth medium. Control cultures were treated with 0.1% DMSO in growth medium; experimental cultures received a final concentration of 10^−7M, 10^−8M, 10^−9M or 10^−10M rapamycin or rapamycin analogue. Each culture was set up in triplicate and replicate plates were labelled with 1 μCi tritiated thymidine (Amersham International, specific activity 70 Ci/mM) per well for 3 h at either Oh; 24 h; or 48 h incubation with drugs. At the respective time points the cultures were harvested onto glass fibre paper to trap the DNA following water lysis; free nucleotides were washed away. Radioactivity incorporated into the filter discs/trapped DNA was counted in a Packard scintillation counter using biodegradable scintillation fluid.
The dose response of human lymphoblastoid cell lines 536 was measured. […] This implies that none of the compounds were toxic to the 536 cell line.
In general terms: Incorporation of labelled thymidine or its analogues reports DNA synthesis.

Experimental findings from patent US7381546B2, “Polyketides and their synthesis and use” (Biotica Technology Limited, priority 1998, dated 2008) are described below.

Where two headings read alike, the source gives them in different places.

On to 4-hydroxy-prolyl-26-demethoxy-rapamycin, for which, where the note is “0-3 h drug exposure, up to 100 nM (FIG. 3)”, the “effect on DNA synthesis (mean cpm of radiolabelled thymidine incorporated)” value is given as “no appreciable effect”. Also, the “inhibition of DNA synthesis” value (at 100 nM, after 24 and 48 hours (FIG. 4)) was less than 50%.

Consider `COC1CC2CCC(C)C(O)(O2)C(=O)C(=O)N2CCCC2C(=O)OC(C(C)CC2CCC(O)C(OC)C2)CC(=O)C(C)/C=C(\C)C(O)C(OC)C(=O)C(C)CC(C)/C=C/C=C/C=C/1C` (stereo not shown) [prolylrapamycin], for which the IC50 was determined as 3 nM.

With `CO[C@H]1C[C@@H]2CC[C@@H](C)[C@@](O)(O2)C(=O)C(=O)N2CCCC[C@H]2C(=O)O[C@H]([C@H](C)C[C@@H]2CC[C@@H](O)[C@H](OC)C2)CC(=O)[C@H](C)/C=C(\C)[C@@H](O)[C@@H](OC)C(=O)[C@H](C)C[C@H](C)/C=C/C=C/C=C/1C` [rapamycin, reference compound], under “Homo sapiens, Lymphoblastoid cell”, the IC50 is 1 nM.
